Columns and labels:
Assay in all cases: Enzymatic kinase assay (filter-binding / flashplate, 33P incorporation)
Format in all cases: biochemical
Details in all cases: enzymatic kinase selectivity
[1] = target: RET (Homo sapiens, UniProt P07949)
Procedure: (§1) Two methods were used to analyze phosphorylated peptides and proteins produced by the listed tyrosine and serine/threonine-specific protein kinases: either using a filter-binding assay (FB), or using a flashplate assay (FP). The activities of protein kinases were assayed in the presence or absence of inhibitors, by measuring the incorporation of ^33P from [γ^33P]ATP into appropriate substrates.
(§2) 96-well polypropylene microplates were used to assay the activity in the FB mode. To determine the inhibitory activity of compounds 10 μL of compound dilutions were pipetted into 96-well plates followed by the addition of 10 μL of assay mix and 10 μL of individual enzymes. With the addition of the enzymes the reactions were initiated and continued at RT. The reactions were stopped by the addition of 50 μL of a 125 mM EDTA solution pH 8.0. The final concentration of DMSO in the enzyme assays was 1%.
(§3) Flashplates are available as 96-well standard (STFPs) or as streptavidin-(SAFPs) or nickel coated FPs (NiFPs) from Perkin Elmer. STFPs are 96-well polystyrene microplates in which the interior of each well is permanently coated with a thin layer of polystyrene-based scintillant. Streptavidin flashplates (SAFP) are 96 or 384-well STFPs coated with streptavidin. SAFPs are suitable for a wide variety of assay applications which utilize biotinylated capture molecules. NiFP or nickel chelate flashplates are 96- or 384-well STFPs coated with nickel chelate. NiFPs are designed for in-plate, radiometric assays which utilize 4- or 6-histidine tagged proteins and peptides.
(§4) All kinase assays were performed in STFPs for 60 mins at RT and stopped with 50 μL of 0.5% H3PO4 except PKA which were carried out in polypropylene 96- and 384-well plates, respectively. PKA assays were stopped with 50 μL of 125 mM EDTA (pH 8.0) and 50 μL were transferred to either SAFPs or NIFPs to capture the biotinylated or histidine tagged peptides phosphorylated by PKA (SAFP) or by NiFPs. All wells were then washed three times with 200 μL of 0.5% H3PO4 and the plates were dried at room temperature. The plates were sealed and counted in a microplate scintillation counter (TopCount NXT, TopCount NXT HTS). The final concentration of DMSO in the enzyme assays was 1%.

[2] = target: HER2 (Homo sapiens, UniProt P04626)
Procedure: as §1, §2, §3, §4

[3] = target: IGF1R (Homo sapiens, UniProt P08069)
Procedure: as §1, §2, §3, §4

[4] = target: GSK3beta (Homo sapiens, UniProt P49841)
Procedure: as §1, §2, §3, §4

[5] = target: InsR (Homo sapiens, UniProt P06213)
Procedure: as §1, §2, §3, §4

[6] = target: T1, Aurora A (Homo sapiens, UniProt O14965)
T1 sequence (O14965 1-403): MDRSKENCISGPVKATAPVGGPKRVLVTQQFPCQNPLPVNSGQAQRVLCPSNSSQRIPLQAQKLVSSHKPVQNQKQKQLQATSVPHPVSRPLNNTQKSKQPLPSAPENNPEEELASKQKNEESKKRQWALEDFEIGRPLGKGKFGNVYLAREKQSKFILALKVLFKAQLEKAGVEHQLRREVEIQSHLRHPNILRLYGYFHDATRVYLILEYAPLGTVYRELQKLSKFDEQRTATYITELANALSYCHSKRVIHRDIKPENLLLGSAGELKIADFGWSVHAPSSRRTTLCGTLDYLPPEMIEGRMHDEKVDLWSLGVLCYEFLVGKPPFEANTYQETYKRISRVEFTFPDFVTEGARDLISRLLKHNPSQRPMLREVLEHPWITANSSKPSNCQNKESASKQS
Procedure: as §1, §2, §3, §4

[7] = target: CDK2A (Homo sapiens, UniProt P24941)
Procedure: as §1, §2, §3, §4

[8] = target: cABLT315 (Homo sapiens, UniProt P00519, T315I)
Procedure: as §1, §2, §3, §4

[9] = target: LCK (Homo sapiens, UniProt P06239)
Procedure: as §1, §2, §3, §4

[10] = target: EphA4 (Homo sapiens, UniProt P54764)
Procedure: as §1, §2, §3, §4

[11] = target: JAK2 (Homo sapiens, UniProt O60674)
Procedure: as §1, §2, §3, §4

[12] = target: KDR (Homo sapiens, UniProt P35968)
Procedure: as §1, §2, §3, §4

[13] = target: FGFR-4 (Homo sapiens, UniProt P22455)
Procedure: as §1, §2, §3, §4

[14] = target: P38a (Homo sapiens, UniProt Q16539)
Procedure: as §1, §2, §3, §4

[15] = target: MK2 (Homo sapiens, UniProt P49137)
Procedure: as §1, §2, §3, §4

[16] = target: PDGFRa (Homo sapiens, UniProt P16234)
Procedure: as §1, §2, §3, §4

[17] = target: cKIT (Homo sapiens, UniProt P10721)
Procedure: as §1, §2, §3, §4

[18] = target: cMET (Homo sapiens, UniProt P08581)
Procedure: as §1, §2, §3, §4

[19] = target: COT1 (Homo sapiens, UniProt P41279)
Procedure: as §1, §2, §3, §4

[20] = target: ERK2 (Homo sapiens, UniProt P28482)
Procedure: as §1, §2, §3, §4

[21] = target: TYK2 (Homo sapiens, UniProt P29597)
Procedure: as §1, §2, §3, §4

GSK3beta, sequence (P49841 whole entry, species assumed): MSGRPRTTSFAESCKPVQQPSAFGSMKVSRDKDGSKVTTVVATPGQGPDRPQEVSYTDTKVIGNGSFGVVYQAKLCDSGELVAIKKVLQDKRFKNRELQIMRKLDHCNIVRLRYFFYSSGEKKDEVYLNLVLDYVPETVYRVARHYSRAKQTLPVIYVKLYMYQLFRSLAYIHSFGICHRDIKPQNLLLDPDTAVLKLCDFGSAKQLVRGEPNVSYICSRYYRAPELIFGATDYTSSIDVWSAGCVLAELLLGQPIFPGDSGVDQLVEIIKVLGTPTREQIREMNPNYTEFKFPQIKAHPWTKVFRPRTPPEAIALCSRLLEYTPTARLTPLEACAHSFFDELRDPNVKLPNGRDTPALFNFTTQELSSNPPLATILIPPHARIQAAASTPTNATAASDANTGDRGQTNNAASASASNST
PDGFRa, sequence (P16234 24-1089, species assumed): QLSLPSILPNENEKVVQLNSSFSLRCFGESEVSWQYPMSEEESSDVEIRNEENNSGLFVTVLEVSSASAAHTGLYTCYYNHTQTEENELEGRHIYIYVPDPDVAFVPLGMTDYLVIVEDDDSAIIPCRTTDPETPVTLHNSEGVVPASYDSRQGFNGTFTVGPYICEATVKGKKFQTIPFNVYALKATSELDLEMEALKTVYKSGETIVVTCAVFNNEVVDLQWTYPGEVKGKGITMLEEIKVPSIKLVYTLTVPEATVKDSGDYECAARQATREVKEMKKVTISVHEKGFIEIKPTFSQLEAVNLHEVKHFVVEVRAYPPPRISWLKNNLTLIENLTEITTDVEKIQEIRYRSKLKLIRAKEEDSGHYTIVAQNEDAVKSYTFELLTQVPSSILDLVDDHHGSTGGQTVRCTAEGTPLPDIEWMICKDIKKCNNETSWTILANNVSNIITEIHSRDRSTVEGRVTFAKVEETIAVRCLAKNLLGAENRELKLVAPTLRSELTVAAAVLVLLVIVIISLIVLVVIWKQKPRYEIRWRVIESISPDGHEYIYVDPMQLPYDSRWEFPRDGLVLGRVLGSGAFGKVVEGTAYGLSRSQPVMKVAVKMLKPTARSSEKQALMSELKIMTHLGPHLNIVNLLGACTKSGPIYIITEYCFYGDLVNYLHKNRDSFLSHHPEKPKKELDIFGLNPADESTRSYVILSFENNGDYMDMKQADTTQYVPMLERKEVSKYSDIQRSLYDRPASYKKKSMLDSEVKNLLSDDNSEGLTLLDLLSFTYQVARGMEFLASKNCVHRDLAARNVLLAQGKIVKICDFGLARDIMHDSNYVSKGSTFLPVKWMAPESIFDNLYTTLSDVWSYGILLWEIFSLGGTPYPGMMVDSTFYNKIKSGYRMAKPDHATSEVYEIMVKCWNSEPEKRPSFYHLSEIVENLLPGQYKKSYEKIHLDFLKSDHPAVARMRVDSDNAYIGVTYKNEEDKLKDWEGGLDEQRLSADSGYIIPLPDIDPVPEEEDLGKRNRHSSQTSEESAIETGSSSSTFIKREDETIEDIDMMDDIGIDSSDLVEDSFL
LCK, sequence (P06239 whole entry, species assumed): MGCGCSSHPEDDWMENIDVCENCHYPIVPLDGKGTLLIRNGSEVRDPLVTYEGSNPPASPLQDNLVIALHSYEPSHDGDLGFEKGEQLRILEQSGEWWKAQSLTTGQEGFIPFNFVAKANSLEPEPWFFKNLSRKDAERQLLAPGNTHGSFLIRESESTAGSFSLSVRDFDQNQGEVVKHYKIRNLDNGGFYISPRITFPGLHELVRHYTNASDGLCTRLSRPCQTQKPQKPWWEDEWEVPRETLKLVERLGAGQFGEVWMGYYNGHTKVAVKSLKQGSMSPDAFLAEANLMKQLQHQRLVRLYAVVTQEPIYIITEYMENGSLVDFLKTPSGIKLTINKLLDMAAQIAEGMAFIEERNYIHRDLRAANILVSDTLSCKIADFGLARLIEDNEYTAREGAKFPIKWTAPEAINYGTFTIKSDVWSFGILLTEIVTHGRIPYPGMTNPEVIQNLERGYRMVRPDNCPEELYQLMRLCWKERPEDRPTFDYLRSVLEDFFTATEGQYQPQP
P38a, sequence (Q16539 whole entry): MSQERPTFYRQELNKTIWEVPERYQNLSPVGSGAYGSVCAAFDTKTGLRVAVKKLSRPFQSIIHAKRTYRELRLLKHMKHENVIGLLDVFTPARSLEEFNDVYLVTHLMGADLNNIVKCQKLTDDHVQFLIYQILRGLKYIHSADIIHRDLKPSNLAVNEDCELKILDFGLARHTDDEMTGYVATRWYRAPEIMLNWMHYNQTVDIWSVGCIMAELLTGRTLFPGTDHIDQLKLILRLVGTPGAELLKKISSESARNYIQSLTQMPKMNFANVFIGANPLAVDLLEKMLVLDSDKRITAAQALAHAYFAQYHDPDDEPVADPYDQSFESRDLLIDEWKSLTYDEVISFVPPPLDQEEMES
EphA4, sequence (P54764 20-986, species assumed): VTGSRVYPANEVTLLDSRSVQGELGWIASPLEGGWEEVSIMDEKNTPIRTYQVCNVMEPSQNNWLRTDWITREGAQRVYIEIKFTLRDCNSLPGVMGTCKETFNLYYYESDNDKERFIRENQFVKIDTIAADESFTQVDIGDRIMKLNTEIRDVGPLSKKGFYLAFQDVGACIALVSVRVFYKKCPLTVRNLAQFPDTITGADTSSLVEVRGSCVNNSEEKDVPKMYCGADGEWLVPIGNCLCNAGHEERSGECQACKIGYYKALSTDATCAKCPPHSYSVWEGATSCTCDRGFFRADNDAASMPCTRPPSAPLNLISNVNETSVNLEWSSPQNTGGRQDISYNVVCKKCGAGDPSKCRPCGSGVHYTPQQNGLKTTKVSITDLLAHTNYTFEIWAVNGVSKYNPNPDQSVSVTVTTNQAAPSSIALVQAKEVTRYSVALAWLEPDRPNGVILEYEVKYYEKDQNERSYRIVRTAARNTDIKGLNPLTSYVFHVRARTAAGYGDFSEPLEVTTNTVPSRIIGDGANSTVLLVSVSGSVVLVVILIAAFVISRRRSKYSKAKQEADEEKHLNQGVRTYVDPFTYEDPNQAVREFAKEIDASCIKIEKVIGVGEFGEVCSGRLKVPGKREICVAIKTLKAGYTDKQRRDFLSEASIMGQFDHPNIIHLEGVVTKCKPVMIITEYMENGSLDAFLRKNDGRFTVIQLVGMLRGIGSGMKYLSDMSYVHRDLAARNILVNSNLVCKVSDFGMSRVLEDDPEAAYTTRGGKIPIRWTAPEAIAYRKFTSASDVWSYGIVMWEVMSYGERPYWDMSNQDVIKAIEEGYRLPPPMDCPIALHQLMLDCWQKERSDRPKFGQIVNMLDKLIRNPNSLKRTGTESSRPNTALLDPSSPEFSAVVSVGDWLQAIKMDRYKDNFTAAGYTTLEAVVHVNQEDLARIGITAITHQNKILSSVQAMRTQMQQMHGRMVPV
FGFR-4, sequence (P22455 22-802, species assumed): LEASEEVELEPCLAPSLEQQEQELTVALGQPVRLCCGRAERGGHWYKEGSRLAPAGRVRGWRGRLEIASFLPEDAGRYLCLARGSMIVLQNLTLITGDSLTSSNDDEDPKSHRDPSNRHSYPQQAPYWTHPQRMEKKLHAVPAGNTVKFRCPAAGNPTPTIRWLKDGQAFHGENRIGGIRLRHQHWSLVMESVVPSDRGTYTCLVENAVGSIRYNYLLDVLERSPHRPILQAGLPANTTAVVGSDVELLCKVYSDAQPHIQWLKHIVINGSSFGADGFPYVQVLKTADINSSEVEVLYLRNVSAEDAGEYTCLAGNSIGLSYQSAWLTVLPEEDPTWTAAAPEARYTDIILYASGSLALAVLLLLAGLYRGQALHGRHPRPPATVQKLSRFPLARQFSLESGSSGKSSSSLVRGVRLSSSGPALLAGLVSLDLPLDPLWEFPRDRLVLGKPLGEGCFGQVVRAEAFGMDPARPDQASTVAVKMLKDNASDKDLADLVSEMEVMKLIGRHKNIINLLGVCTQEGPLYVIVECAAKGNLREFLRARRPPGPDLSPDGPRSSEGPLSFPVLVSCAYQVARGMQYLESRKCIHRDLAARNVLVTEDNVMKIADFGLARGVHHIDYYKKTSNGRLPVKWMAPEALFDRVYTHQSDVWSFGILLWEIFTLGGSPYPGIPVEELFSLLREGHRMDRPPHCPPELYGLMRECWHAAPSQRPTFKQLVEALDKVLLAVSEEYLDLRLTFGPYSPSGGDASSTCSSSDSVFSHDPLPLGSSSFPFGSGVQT
cKIT, sequence (P10721 26-976): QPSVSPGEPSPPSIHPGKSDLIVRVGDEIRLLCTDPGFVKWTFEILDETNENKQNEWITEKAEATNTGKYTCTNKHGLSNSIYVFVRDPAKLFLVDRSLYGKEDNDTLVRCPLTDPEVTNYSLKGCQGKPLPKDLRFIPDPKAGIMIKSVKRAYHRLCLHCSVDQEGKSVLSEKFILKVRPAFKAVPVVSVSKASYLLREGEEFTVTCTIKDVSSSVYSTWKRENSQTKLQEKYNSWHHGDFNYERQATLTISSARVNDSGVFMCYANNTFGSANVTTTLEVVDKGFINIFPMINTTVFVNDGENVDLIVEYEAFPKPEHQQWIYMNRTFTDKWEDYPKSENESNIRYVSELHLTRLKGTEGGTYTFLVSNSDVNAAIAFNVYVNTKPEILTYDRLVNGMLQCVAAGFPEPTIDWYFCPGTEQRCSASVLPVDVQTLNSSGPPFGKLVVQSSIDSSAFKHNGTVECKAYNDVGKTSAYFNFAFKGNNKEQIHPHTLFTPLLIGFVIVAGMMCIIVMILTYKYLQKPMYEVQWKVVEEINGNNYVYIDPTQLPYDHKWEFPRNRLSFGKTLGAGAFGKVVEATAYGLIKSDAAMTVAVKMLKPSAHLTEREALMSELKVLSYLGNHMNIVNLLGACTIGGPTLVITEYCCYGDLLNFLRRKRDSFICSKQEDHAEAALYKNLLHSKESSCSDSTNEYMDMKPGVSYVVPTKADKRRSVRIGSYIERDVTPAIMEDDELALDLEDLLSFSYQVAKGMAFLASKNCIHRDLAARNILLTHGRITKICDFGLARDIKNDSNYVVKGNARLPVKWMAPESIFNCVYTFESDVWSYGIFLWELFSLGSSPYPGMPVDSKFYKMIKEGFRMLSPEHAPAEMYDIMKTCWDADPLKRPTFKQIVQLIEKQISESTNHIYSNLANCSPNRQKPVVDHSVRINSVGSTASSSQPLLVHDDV

Row | SMILES | IC50 [1] [nM] | IC50 [2] [nM] | IC50 [3] [nM] | IC50 [4] [nM] | IC50 [5] [nM] | IC50 [6] [nM] | IC50 [7] [nM] | IC50 [8] [nM] | IC50 [9] [nM] | IC50 [10] [nM] | IC50 [11] [nM] | IC50 [12] [nM] | IC50 [13] [nM] | IC50 [14] [nM] | IC50 [15] [nM] | IC50 [16] [nM] | IC50 [17] [nM] | IC50 [18] [nM] | IC50 [19] [nM] | IC50 [20] [nM] | also measured
1 | CC(=O)NC[C@H]1C[C@@H](n2cc(-c3ccc4c(c3)OC(c3ccccc3)CC4)c3c(N)ncnc32)C1 (mixture of isomers) [Example 16, (R,S)—N-{cis-3-[4-Amino-5-(2-phenyl-chroman-7-yl)-pyrrolo[2,3-d]pyrimidin-7-yl]-cyclobutylmethyl}-acetamide] | 360 | > 10000 | 50 | > 10000 | 780 | 4300 | > 10000 | 8000 | 4460 | > 10000 | > 10000 | 160 | > 10000 | > 10000 | > 10000 | 1200 | 3200 | > 10000 | > 10000 | > 10000 | IC50 [21]: > 10000 nM
2 | Nc1ncnc2c1c(-c1ccc3c(c1)OC(c1ccccc1)C=C3)cn2[C@H]1C[C@@H](CN2CCS(=O)(=O)CC2)C1 (mixture of isomers) [Example 21, (R,S)-7-[cis-3-(1,1-Dioxo-1-thiomorpholin-4-ylmethyl)-cyclobutyl]-5-(2-phenyl-2H-chromen-7-yl)-7H-pyrrolo[2,3-d]pyrimidin-4-ylamine] | 25 | > 10000 | 7.8 | > 10000 | 73 | 4000 | > 10000 | > 10000 | 3600 | > 10000 | > 10000 | 110 | > 10000 | > 10000 | > 10000 | 770 | 770 | > 10000 | > 10000 | > 10000 | IC50 [21]: > 10000 nM
3 | CC(=O)N1CCN([C@H]2C[C@@H](n3cc(-c4ccc5c(c4)OC(c4ccccc4)CC5)c4c(N)ncnc43)C2)CC1 (relative stereo) [Example 38, 1-(4-{cis-3-[4-Amino-5-(2-phenyl-chroman-7-yl)-pyrrolo[2,3-d]pyrimidin-7-yl]-cyclobutyl}-piperazin-1-yl)-ethanone] | 410 | > 10000 | 17 | > 10000 | 100 | > 10000 | > 10000 | > 10000 | 3800 | > 10000 | > 10000 | 240 | > 10000 | > 10000 | > 10000 | > 10000 | 6000 | > 10000 | > 10000 | > 10000 | IC50 [21]: > 10000 nM
4 | Nc1ncnc2c1c(-c1ccc3c(c1)OC(c1ccccc1)CC3)cn2C1CC(O)(CO)C1 (single isomer, unassigned) [Example 26] | 760 | > 10000 | 58 | > 10000 | 1450 | 8800 | > 10000 | 4350 | 6150 | > 10000 | > 10000 | 250 | 8900 | > 10000 | > 10000 | > 10000 | > 10000 | > 10000 | > 10000 | > 10000 | IC50 [21]: > 10000 nM

Reference: patent publication US20120289501A1, “Benzene-fused 6-membered oxygen-containing heterocyclic derivatives of bicyclic heteroaryls” (NOVARTIS AG, priority 2009, published 2012)
